The results in this text go back to ChEMBL document CHEMBL3232977, “Medicinal chemistry optimization of antiplasmodial imidazopyridazine hits from high throughput screening of a SoftFocus kinase library: part 1” (J Med Chem, 2014).

Series [1] concerns Plasmodium falciparum. The series is described as follows: microbe, parasite or virus in culture. The following applies: K1.
Description: Antimalarial activity against multidrug-resistant Plasmodium falciparum K1
Series [2] in a line: Hepatic extraction ratio in human liver microsomes at 1 uM up to 60 mins by LC-MS analysis. The class given is ADME. Particulars: read-out: ERH.
The test system of series [3] is Plasmodium falciparum. The series can be described thus: microbe, parasite or virus in culture. Particulars: NF54.
Description: Antimalarial activity against drug-sensitive Plasmodium falciparum NF54
Series [4] in a line: physchem. The following applies: 0.01 M HCl, pH 2.
Description: Solubility of the compound in 0.01M HCl at pH 2

pIC50: −log10 of the molar value.

In the case of `COc1ccc(-c2ccc3ncc(-c4ccncc4)n3n2)cc1OC`, the pIC50 in series [1] was 7.85; in series [3], 7.80. Moreover, the hepatic extraction ratio at 1 h, 1 µM in series [2] was 0.86. Moreover, in series [4], the solubility was greater than 100 µg/mL.
`CS(=O)(=O)Nc1cccc(-c2ccc3ncc(-c4ccncc4)n3n2)c1`: the pIC50 in series [1] was 7.82; in series [3], 7.80. In addition, the hepatic extraction ratio at 1 h, 1 µM in series [2] was 0.82. In series [4], the solubility was greater than 100 µg/mL.
On to `COc1ccc(-c2cnc3ccc(-c4cccnc4)nn23)cc1OC`, for which the negative logarithm of the IC50 (pIC50) in series [1] was 7.63; in series [3], 7.59. For the same compound, in series [2], the hepatic extraction ratio at 1 h, 1 µM turned out to be 0.92.
`CS(=O)(=O)c1cccc(-c2ccc3ncc(-c4ccncc4)n3n2)c1`: the pIC50 in series [1] is 7.55; in series [3], 7.34. The compound further showed a solubility in series [4] greater than 100 µg/mL.
As for `CC(C)(C)OC(=O)NCc1cccc(-c2ccc3ncc(-c4ccncc4)n3n2)c1`, the pIC50 in series [1] is 7.01; in series [3], 7.02. This compound had a solubility in series [4] greater than 100 µg/mL.
In the same order, the values of `FC(F)(F)Oc1cccc(-c2ccc3ncc(-c4ccncc4)n3n2)c1` are 6.93, 6.84 and greater than 100 µg/mL.
On the same counts, the results for `CC(C)(C)c1cccc(-c2ccc3ncc(-c4ccncc4)n3n2)c1` are 6.91, 6.86 and greater than 100 µg/mL.
In the same order, the values of `Fc1ccc(-c2ccc3ncc(-c4ccncc4)n3n2)cc1` are 6.86, 6.73 and greater than 100 µg/mL.
As for `Clc1cccc(-c2ccc3ncc(-c4ccncc4)n3n2)c1`, the pIC50 in series [1] was 6.74; in series [3], 6.69. Also, in series [4], the solubility was greater than 100 µg/mL.
In the same order, the values of `c1cc(-c2ccc3ncc(-c4ccncc4)n3n2)c2ccncc2c1` are 6.72, 6.65 and greater than 100 µg/mL.
In the same order, the values of `Fc1cccc(-c2ccc3ncc(-c4ccncc4)n3n2)c1` are 6.69, 6.57 and greater than 100 µg/mL.
In the same order, the values of `c1cc(-c2ccc3ncc(-c4ccncc4)n3n2)cc(N2CCOCC2)c1` are 6.61, 6.55 and greater than 100 µg/mL.
For the compound `Fc1ccc(-c2ccc3ncc(-c4ccncc4)n3n2)cc1F`, the pIC50 was 6.38 in series [1] and 6.30 in series [3]. This compound registered a solubility in series [4] greater than 100 µg/mL.
`COc1ccc(-c2ccc3ncc(-c4ccncc4)n3n2)cn1`: the pIC50 in series [1] is 6.39; in series [3] it was 6.22. In series [4], this compound returned a solubility greater than 100 µg/mL.
In the same order, the values of `NCc1ccc(-c2ccc3ncc(-c4ccncc4)n3n2)cc1` are 6.31, 6.47 and greater than 100 µg/mL.
On to `NCc1cccc(-c2ccc3ncc(-c4ccncc4)n3n2)c1`, for which the negative-log IC50 (pIC50) is 6.23 in series [1] and 6.54 in series [3]. In series [4], this compound gave a solubility greater than 100 µg/mL.
In the same order, the values of `FC(F)(F)c1ccc(-c2ccc3ncc(-c4ccncc4)n3n2)cn1` are 6.06, 6.02 and greater than 100 µg/mL.
Regarding `FC(F)(F)Oc1ccc(-c2ccc3ncc(-c4ccncc4)n3n2)cc1`, the pIC50 is 6.01 in series [1] and 5.97 in series [3]. Besides, the solubility in series [4] was greater than 100 µg/mL.
In the case of `CN1CCN(S(=O)(=O)c2ccc(-c3ccc4ncc(-c5ccncc5)n4n3)cc2)CC1`, the values for the pIC50 in series [1] and in series [3] were 5.90 and 6.13, respectively. Moreover, in series [4], the solubility was greater than 100 µg/mL.
For `CC(C)(C)c1ccc(-c2ccc3ncc(-c4ccncc4)n3n2)cc1`, the pIC50 in series [1] was 5.85; in series [3] it was 5.73. Moreover, the solubility in series [4] was greater than 100 µg/mL.
For the compound `O=S(=O)(c1ccc(-c2ccc3ncc(-c4ccncc4)n3n2)cc1)N1CCOCC1`, the pIC50 in series [1] is 5.83; in series [3], 5.65. For the same compound, the solubility in series [4] is greater than 100 µg/mL.
On the same counts, the results for `CC(C)(C)OC(=O)NCc1ccc(-c2ccc3ncc(-c4ccncc4)n3n2)cc1` are 5.79, 5.79 and greater than 100 µg/mL.
For `c1cnc2c(-c3ccc4ncc(-c5ccncc5)n4n3)cccc2c1`, the pIC50 in series [1] is 5.78; in series [3], 5.67. The solubility in series [4] is greater than 100 µg/mL.
Consider `c1cc(-c2cnc3ccc(-c4ccc(N5CCOCC5)cc4)nn23)ccn1`, for which the pIC50 in series [1] and in series [3] was less than 5.55 in each case. In series [4], this compound returned a solubility greater than 100 µg/mL.
On to `CS(=O)(=O)c1ccc(-c2ccc3ncc(-c4ccncc4)n3n2)cc1`, for which the pIC50 in series [1] and in series [3] was less than 5.54 throughout. Besides, in series [4], the solubility was greater than 100 µg/mL.
Regarding `C1=C(c2ccc3ncc(-c4ccncc4)n3n2)Cc2nonc2C1`, the pIC50 in series [1] and in series [3] was less than 5.50 each time. Further, the solubility in series [4] was greater than 100 µg/mL.
As for `CS(=O)(=O)c1ccc(-c2cnc3ccc(-c4cccc(S(=O)(=O)NC5CC5)c4)nn23)cc1`, the pIC50 in series [1] is 9.24; in series [3], 9.18. The compound also yielded a solubility in series [4] greater than 100 µg/mL.
As for `CS(=O)(=O)c1ccc(-c2cnc3ccc(-c4cccc(S(=O)(=O)NCc5ccccc5)c4)nn23)cc1`, the results for the pIC50 in series [1] and in series [3] were 8.48 and 8.46, respectively. In addition, the solubility in series [4] is greater than 100 µg/mL.
Turning to `CS(=O)(=O)c1ccc(-c2cnc3ccc(-c4cccc(C(=O)N5CCCCC5)c4)nn23)cc1`, the values for the pIC50 in series [1] and in series [3] were 8.14 and 8.19, respectively. In series [4], this compound yielded a solubility greater than 100 µg/mL.
On the same counts, the results for `CS(=O)(=O)c1ccc(-c2cnc3ccc(-c4cccc(C(=O)NS(=O)(=O)C5CC5)c4)nn23)cc1` are 7.96, 7.85 and greater than 100 µg/mL.
In the same order, the values of `CS(=O)(=O)Nc1cccc(-c2ccc3ncc(-c4ccc(S(C)(=O)=O)cc4)n3n2)c1` are 7.72, 7.72 and greater than 100 µg/mL.
As to `CS(=O)(=O)c1ccc(-c2cnc3ccc(-c4cccc(C(F)(F)F)c4)nn23)cc1`, the pIC50 in series [1] is 7.26; in series [3], 7.10. In series [4], this compound displayed a solubility greater than 100 µg/mL.
`CS(=O)(=O)c1ccc(-c2cnc3ccc(-c4cccc(C(N)=O)c4)nn23)cc1`: the pIC50 in series [1] is 7.00; in series [3], 6.99. Moreover, in series [4], the solubility is greater than 100 µg/mL.
As for `CS(=O)(=O)c1ccc(-c2cnc3ccc(-c4cccc(C#N)c4)nn23)cc1`, the pIC50 in series [1] is 7.02; in series [3] it was 6.97. The compound further showed a solubility in series [4] greater than 100 µg/mL.
On the same counts, the results for `CN(C)c1cccc(-c2ccc3ncc(-c4ccc(S(C)(=O)=O)cc4)n3n2)c1` are 6.97, 6.93 and greater than 100 µg/mL.
In the same order, the values of `CS(=O)(=O)c1ccc(-c2cnc3ccc(-c4ccc(C(F)(F)F)cc4)nn23)cc1` are 6.87, 6.72 and greater than 100 µg/mL.
For the compound `CS(=O)(=O)c1ccc(-c2cnc3ccc(-c4ccc(C(=O)NC5CCCC5)cc4)nn23)cc1`, the values for the pIC50 in series [1] and in series [3] were 6.84 and 6.81, respectively. Further, in series [4], the solubility is greater than 100 µg/mL.
In the case of `CS(=O)(=O)c1ccc(-c2cnc3ccc(-c4ccc(F)c(Cl)c4)nn23)cc1`, the results for the pIC50 in series [1] and in series [3] were 6.82 and 6.75, respectively. In series [4], this compound showed a solubility greater than 100 µg/mL.
Turning to `CC(C)(C)NC(=O)c1ccc(F)c(-c2ccc3ncc(-c4ccc(S(C)(=O)=O)cc4)n3n2)c1`, the pIC50 in series [1] is 6.81; in series [3], 6.80. The solubility in series [4] is greater than 100 µg/mL.
In the same order, the values of `CS(=O)(=O)c1ccc(-c2cnc3ccc(-c4ccc(C(F)(F)F)c(F)c4)nn23)cc1` are 6.50, 6.41 and greater than 100 µg/mL.
For `CS(=O)(=O)c1ccc(-c2cnc3ccc(-c4ccc(C(F)(F)F)nc4)nn23)cc1`, the pIC50 in series [1] is 6.20; in series [3], 6.12. The solubility in series [4] is greater than 100 µg/mL.
Turning to `CS(=O)(=O)c1ccc(-c2ccc3ncc(-c4ccc(S(C)(=O)=O)cc4)n3n2)cc1`, the pIC50 in series [1] was 6.12; in series [3] it was 6.15. For the same compound, the solubility in series [4] was greater than 100 µg/mL.
In the same order, the values of `CS(=O)(=O)c1ccc(-c2cnc3ccc(-c4cc(C(=O)NC5CCCCC5)ccc4F)nn23)cc1` are less than 5.69, less than 5.69 and greater than 100 µg/mL.
In the same order, the values of `c1cncc(-c2ccc3ncc(-c4cccnc4)n3n2)c1` are 5.97, 5.90 and greater than 100 µg/mL.
With `CS(=O)(=O)c1ccc(-c2ccc3ncc(-c4cccnc4)n3n2)cc1`, the pIC50 in series [1] and in series [3] was less than 5.54 in each case. In addition, the solubility in series [4] was greater than 100 µg/mL.
In the case of `CS(=O)(=O)Nc1cccc(-c2ccc3ncc(-c4cncnc4)n3n2)c1`, the pIC50 in series [1] was 7.12; in series [3] it was 7.03. In addition, in series [2], the hepatic extraction ratio at 1 h, 1 µM came to 0.75. In series [4], this compound displayed a solubility greater than 100 µg/mL.
In the same order, the values of `CS(=O)(=O)Nc1cccc(-c2ccc3ncc(-c4ccc([S+](N)[O-])cc4)n3n2)c1` (centres undefined) are 7.70, 7.74, 0.42 and greater than 100 µg/mL.
On to `N[S+]([O-])c1ccc(-c2ccc3ncc(-c4ccc([S+](N)[O-])cc4)n3n2)cc1` (centres undefined), for which the negative-log IC50 (pIC50) in series [1] and in series [3] was less than 5.63 each time. Besides, in series [4], the solubility was greater than 100 µg/mL.
`CN(C)S(=O)(=O)c1ccc(-c2ccc3ncc(-c4ccc(S(=O)(=O)N(C)C)cc4)n3n2)cc1`: the pIC50 in series [1] and in series [3] was less than 5.69 each time. In addition, the solubility in series [4] is greater than 100 µg/mL.
On to `CS(=O)(=O)c1ccc(-c2ccc3ncc(-c4ccc(C(F)(F)F)cc4)n3n2)cc1`, for which the pIC50 in series [1] was 6.18; in series [3], 6.12. The hepatic extraction ratio at 1 h, 1 µM in series [2] is less than 0.28. For the same compound, the solubility in series [4] was greater than 100 µg/mL.
On the same counts, the results for `O=C(c1ccc(-c2ccc3ncc(-c4ccc(C(F)(F)F)cc4)n3n2)cc1)N1CCOCC1` are 6.14, 6.12, 0.59 and greater than 100 µg/mL.

A word on the pIC50: it is the negative decadic logarithm of the IC50, by convention in mol/L. A higher pIC50 goes with a low IC50. As usually defined, the solubility is the dissolved amount per volume that the medium holds.
